Experimental data from patent US20130324576A1, “THERAPEUTIC COMPOUNDS” (Takeda Pharmaceutical Company Limited, priority 2012, published 2013).
pIC50: −log10 of the molar value.

biological target: T1, human PKR1 receptors (Homo sapiens, UniProt Q8TCW9); assay: PKR1 antagonist assay: block of PK1-mediated intracellular calcium release (FLIPR Tetra, Calcium 5 dye); assay type: cell-based; details: RBL2H3 cells expressing human PKR1; 10 min pre-incubation, stimulation with PK1 at EC80; calcium fluorescence
T1 construct: expressed in transfected cells; host or cells: RBL2H3 cells (rat basophilic leukaemia line) expressing human PKR1
Method: Prokineticin receptor 1 (PKR1) antagonists may be functionally assessed by measurement of change in intracellular calcium levels induced by Gq mediated increase in inositol triphosphate (IP3) levels. The ability of a compound to block the intracellular release of calcium mediated by PK1 in RBL2H3 cells expressing human PKR1 receptors is determined as a measure of the compound's antagonist activity in vitro.
Approximately 10,000 cells per assay well are seeded in normal culture medium in a 384 well plate (Corning). Twenty-four hours after seeding, the cells are loaded with a calcium sensitive fluorescent dye by replacing the culture medium with assay buffer (1× Hanks buffered saline, 25 mM HEPES, 0.1% w/v fatty acid free BSA (bovine serum albumin), pH 7.4) containing 1 mM probenecid and 1× Calcium 5 Reagent (Molecular Devices). Cells are incubated at 37° C. for 1 hour to allow for dye uptake.
To test for antagonist activity, test compounds at a final concentration range between 0.32 nM-10 μM (diluted in assay buffer) are added to the assay wells and allowed to incubate for 10 minutes prior to stimulation with PK1. After incubation with test compounds the assay plate is placed in a FLIPR Tetra (Molecular Devices) and PK1 (diluted in assay buffer) is added at the determined EC80 concentration (final). Ligand-dependent changes in intracellular calcium levels are determined by measuring changes in fluorescence of the dye at […] following excitation at 485 nm.

T1 sequence (Q8TCW9 whole entry): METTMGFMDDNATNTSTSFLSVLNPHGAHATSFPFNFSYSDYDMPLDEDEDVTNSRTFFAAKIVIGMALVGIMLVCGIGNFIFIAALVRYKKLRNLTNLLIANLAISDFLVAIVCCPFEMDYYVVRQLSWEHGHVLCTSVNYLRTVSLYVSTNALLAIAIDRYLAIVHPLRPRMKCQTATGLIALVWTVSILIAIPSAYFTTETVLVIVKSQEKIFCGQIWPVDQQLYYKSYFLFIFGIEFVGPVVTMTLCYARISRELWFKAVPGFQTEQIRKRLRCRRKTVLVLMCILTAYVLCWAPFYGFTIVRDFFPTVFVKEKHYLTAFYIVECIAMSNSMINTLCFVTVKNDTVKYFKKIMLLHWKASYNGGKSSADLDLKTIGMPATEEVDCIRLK

| pIC50 | Compound |
| --- | --- |
| 6.28 | Cc1n[nH]c(C)c1S(=O)(=O)N1CCC(Cc2ccc(Cl)cc2)CC1 [Example 67, 4-(4-Chlorobenzyl)-1-((3,5-dimethyl-1H-pyrazol-4-yl)sulfonyl)piperidine] |
| 5.40 | Cc1n[nH]c(C)c1S(=O)(=O)N1CCC(C(F)c2ccc(Cl)cc2)CC1 (single isomer, unassigned) [Example 106, 4-((4-Chlorophenyl)fluoromethyl)-1-((3,5-dimethyl-1H-pyrazol-4-yl)sulfonyl)piperidine] |
| 6.00 | Cc1nn(C)c(C)c1S(=O)(=O)N1CCC(C(=O)c2ccc(Cl)cc2)CC1 [Example 49, (4-Chlorophenyl)(1-((1,3,5-trimethyl-1H-pyrazol-4-yl)sulfonyl)piperidin-4-yl)methanone] |
| 5.99 | Cc1n[nH]c(C)c1S(=O)(=O)N1CCC(Cc2ccc(Cl)cc2F)CC1 [Example 82, 4-(4-Chloro-2-fluorobenzyl)-1-((3,5-dimethyl-1H-pyrazol-4-yl)sulfonyl)piperidine] |
| 5.96 | Cc1n[nH]c(C)c1S(=O)(=O)N1CCC(Oc2ccc(Cl)cc2F)CC1 [Example 35, 4-(4-Chloro-2-fluorophenoxy)-1-(3,5-dimethyl-1H-pyrazole-4-sulfonyl)piperidine] |
| 6.02 | Cc1nn(C)c(C)c1S(=O)(=O)N1CCC(Cc2ccc(Cl)c(Cl)c2)CC1 [Example 56, 4-(3,4-Dichlorobenzyl)-1-((1,3,5-trimethyl-1H-pyrazol-4-yl)sulfonyl)piperidine] |
| 6.05 | Cc1n[nH]c(C)c1S(=O)(=O)N1CCC(C#N)(Cc2ccc(Cl)cc2)CC1 [Example 64, 4-(4-Chlorobenzyl)-1-((3,5-dimethyl-1H-pyrazol-4-yl)sulfonyl)piperidine-4-carbonitrile] |
| 6.80 | COC(c1ccc(Cl)cc1)C1CCN(S(=O)(=O)c2c(C)n[nH]c2C)CC1 (single isomer, unassigned) [Example 98, 4-((4-Chlorophenyl)(methoxy)methyl)-1-((3,5-dimethyl-1H-pyrazol-4-yl)sulfonyl)piperidine] |
| 6.14 | CCOC(c1ccc(Cl)cc1)C1CCN(S(=O)(=O)c2c(C)n[nH]c2C)CC1 (centres unmarked) [Example 104, 4-((4-Chlorophenyl)(ethoxy)methyl)-1-((3,5-dimethyl-1H-pyrazol-4-yl)sulfonyl)piperidine] |
| 6.00 | CCc1n[nH]c(CC)c1S(=O)(=O)N1CCC(Cc2ccc(Cl)cc2)CC1 [Example 66, 4-(4-Chlorobenzyl)-1-((3,5-diethyl-1H-pyrazol-4-yl)sulfonyl)piperidine] |
| 6.14 | Cc1nn(C)c(C)c1S(=O)(=O)N1CCC(Cc2ccc(Cl)cc2F)CC1 [Example 83, 4-(4-Chloro-2-fluorobenzyl)-1-((1,3,5-trimethyl-1H-pyrazol-4-yl)sulfonyl)piperidine] |
| 6.28 | Cc1nn(C)c(C)c1S(=O)(=O)N1CCC(Oc2ccc(Cl)cc2)CC1 [Example 5, 4-(4-Chlorophenoxy)-1-[(1,3,5-trimethyl-1H-pyrazol-4-yl)sulfonyl]piperidine] |

The remaining lines, values behind:

| Compound | pIC50 |
| --- | --- |
| Cc1nn(C)c(C)c1S(=O)(=O)N1CCC(Oc2ccc3ccccc3c2)CC1 [Example 23, 4-(Naphthalen-2-yloxy)-1-[(1,3,5-trimethyl-1H-pyrazol-4-yl)sulfonyl]piperidine] | 6.66 |
| Cc1nn(C)c(C)c1S(=O)(=O)N1CCC(Oc2ccc(Cl)cc2C#N)CC1 [Example 31, 5-Chloro-2-{[1-(trimethyl-1H-pyrazole-4-sulfonyl)piperidin-4-yl]oxy}benzonitrile] | 6.51 |
| Cc1n[nH]c(C)c1S(=O)(=O)N1CCC(Oc2ccccc2F)CC1 [Example 76, 1-((3,5-Dimethyl-1H-pyrazol-4-yl)sulfonyl)-4-(2-fluorophenoxy)piperidine] | 5.43 |
| COCC1(Cc2ccc(Cl)cc2)CCN(S(=O)(=O)c2c(C)nn(C)c2C)CC1 [Example 60, 4-(4-Chlorobenzyl)-4-(methoxymethyl)-1-((1,3,5-trimethyl-1H-pyrazol-4-yl)sulfonyl)piperidine] | 6.05 |
| Cc1nn(C)c(C)c1S(=O)(=O)N1CCC(N(C)c2ccc(Cl)c(Cl)c2)CC1 [Example 54] | 5.28 |
| COc1cc(Cl)cnc1OC1CCN(S(=O)(=O)c2c(C)nn(C)c2C)CC1 [Example 84, 5-Chloro-3-methoxy-2-((1-((1,3,5-trimethyl-1H-pyrazol-4-yl)sulfonyl)piperidin-4-yl)oxy)pyridine] | 6.14 |
| COc1cc(Cl)ccc1CC1(O)CCN(S(=O)(=O)c2c(C)n[nH]c2C)CC1 [Example 89, 4-(4-Chloro-2-methoxybenzyl)-1-((3,5-dimethyl-1H-pyrazol-4-yl)sulfonyl)piperidin-4-ol] | 6.39 |
| Cc1nn(C)c(C)c1S(=O)(=O)N1CCC(Oc2ccc(Cl)cc2F)CC1 [Example 30, 4-(4-Chloro-2-fluorophenoxy)-1-(trimethyl-1H-pyrazole-4-sulfonyl)piperidine] | 6.29 |
| Cc1nn(C(F)F)c(C)c1S(=O)(=O)N1CCC(Oc2ccc(Cl)cc2Cl)CC1 [Example 29] | 5.96 |
| COC1(Cc2ccc(Cl)cc2)CCN(S(=O)(=O)c2c(C)nn(C)c2C)CC1 [Example 58, 4-(4-Chlorobenzyl)-4-methoxy-1-((1,3,5-trimethyl-1H-pyrazol-4-yl)sulfonyl)piperidine] | 5.62 |
| Cc1n[nH]c(C)c1S(=O)(=O)N1CCC(O)(Cc2ccc(Cl)c(Cl)c2)CC1 [Example 70, 4-(3,4-Dichlorobenzyl)-1-((3,5-dimethyl-1H-pyrazol-4-yl)sulfonyl)piperidin-4-ol] | 5.06 |
| COc1cc(Cl)cnc1OC1CCN(S(=O)(=O)c2c(C)n[nH]c2C)CC1 [Example 85, 5-Chloro-2-((1-((3,5-dimethyl-1H-pyrazol-4-yl)sulfonyl)piperidin-4-yl)oxy)-3-methoxypyridine] | 5.91 |
| Cc1nn(C)c(C)c1S(=O)(=O)N1CCC(Oc2c(F)cc(Cl)cc2F)CC1 [Example 46, 4-(4-Chloro-2,6-difluorophenoxy)-1-(trimethyl-1H-pyrazole-4-sulfonyl)piperidine] | 6.00 |
| Cc1nn(C)c(C)c1S(=O)(=O)N1CCC(Oc2ccc(Cl)c(Cl)c2)CC1 [Example 1, 4-(3,4-Dichlorophenoxy)-1-((1,3,5-trimethyl-1H-pyrazol-4-yl)sulfonyl)piperidine] | 5.85 |
| Cc1nn(C)c(C)c1S(=O)(=O)N1CCC(Oc2ncc(Cl)cc2F)CC1 [Example 77, 5-Chloro-3-fluoro-2-((1-((1,3,5-trimethyl-1H-pyrazol-4-yl)sulfonyl)piperidin-4-yl)oxy)pyridine] | 5.50 |
| Cc1ccc(OC2CCN(S(=O)(=O)c3c(C)nn(C)c3Cl)CC2)cc1 [Example 11, 1-[(5-Chloro-1,3-dimethyl-1H-pyrazol-4-yl)sulfonyl]-4-(4-methylphenoxy)piperidine] | 6.07 |
| Cc1nn(C)c(C)c1S(=O)(=O)N1CCC(C(=O)c2ccc(Cl)c(Cl)c2)CC1 [Example 50, (3,4-Dichlorophenyl)(1-((1,3,5-trimethyl-1H-pyrazol-4-yl)sulfonyl)piperidin-4-yl)methanone] | 5.68 |
| Cc1n[nH]c(C)c1S(=O)(=O)N1CCC(C#N)(Cc2ccc(Cl)cc2Cl)CC1 [Example 65, 4-(2,4-Dichlorobenzyl)-1-((3,5-dimethyl-1H-pyrazol-4-yl)sulfonyl)piperidine-4-carbonitrile] | 6.03 |
| Cc1n[nH]c(C)c1S(=O)(=O)N1CCC(Oc2ccc(Cl)cc2C(F)(F)F)CC1 [Example 40, 4-[4-Chloro-2-(trifluoromethyl)phenoxy]-1-(3,5-dimethyl-1H-pyrazole-4-sulfonyl)piperidine] | 6.68 |
| Cc1n[nH]c(C)c1S(=O)(=O)N1CCC(Oc2ccc(Cl)c(Cl)c2)CC1 [Example 2, 4-(3,4-Dichlorophenoxy)-1-[(3,5-dimethyl-1H-pyrazol-4-yl)sulfonyl]piperidine] | 6.00 |
| Cc1n[nH]c(C)c1S(=O)(=O)N1CCC(Oc2ccc(Cl)cc2C#N)CC1 [Example 34, 5-Chloro-2-{[1-(3,5-dimethyl-1H-pyrazole-4-sulfonyl)piperidin-4-yl]oxy}benzonitrile] | 6.62 |
| Cc1ccc(OC2CCN(S(=O)(=O)c3c(C(F)(F)F)nn(C)c3C)CC2)cc1 [Example 10, 1-{[1,5-Dimethyl-3-(trifluoromethyl)-1H-pyrazol-4-yl]sulfonyl}-4-(4-methylphenoxy)piperidine] | 5.77 |
| Cc1nn(C)c(C)c1S(=O)(=O)N1CCC(Oc2ccc(C#N)cc2)CC1 [Example 7, 4-({1-[(1,3,5-Trimethyl-1H-pyrazol-4-yl)sulfonyl]piperidin-4-yl}oxy)benzonitrile] | 5.14 |
| COc1cc(Cl)ccc1CC1(F)CCN(S(=O)(=O)c2c(C)n[nH]c2C)CC1 [Example 90, 4-(4-Chloro-2-methoxybenzyl)-1-((3,5-dimethyl-1H-pyrazol-4-yl)sulfonyl)-4-fluoropiperidine] | 6.77 |
| COc1ccc(OC2CCN(S(=O)(=O)c3c(C)nn(C)c3C)CC2)cc1F [Example 43, 4-(3-Fluoro-4-methoxyphenoxy)-1-(trimethyl-1H-pyrazole-4-sulfonyl)piperidine] | 5.20 |
| Cc1cccc(C)c1OC1CCN(S(=O)(=O)c2c(C)n[nH]c2C)CC1 [Example 38, 1-(3,5-Dimethyl-1H-pyrazole-4-sulfonyl)-4-(2,6-dimethylphenoxy)piperidine] | 5.49 |
